Values quoted from earlier work in patent publication US20050004032A1, “Collagen mimics” (priority 2003, published 2005).

Tm, temperature at the midpoint of the thermal transition as measured by CD spectroscopy (literature values per Table 1 footnotes b-f, some reported for the 10-repeat peptides)	Substance	melting temperature of a triple helix (Sakakibara et al. 1973) [°C]
6-7^c ° C.	(ProProGly)7	
	(ProProGly)10	24
